Publication PMC9186373, “Design, synthesis, and biological evaluation of novel carbazole derivatives as potent DNMT1 inhibitors with reasonable PK properties” (Journal of Enzyme Inhibition and Medicinal Chemistry, 2022)
Read-outs that look alike come from different tables or passages of the source.

What was measured:
[1] = test system: G9a (histone H3 lysine 9 methyltransferase); experiment: Methylation inhibition assay (AlphaLisa), G9a; type: biochemical; conditions: 50 µM; for inhibitory activity against G9a: Figure 3; for Relative selectivity index of DNMT1 vs G9a: 1 - selected enzyme inhibition/DNMT1 inhibition
Protocol: (§1) All the compounds were first screened using an ELISA EpiQuik DNA methyltransferase (DNMT) activity/inhibitor assay kit (Epigentek). To measure the effects of the compounds on human DNMT1 activity, 200 nM purified DNMT1 was incubated with 50 µM and 100 µM of the different compounds and S-adenosylmethionine in the DNMT assay buffer in the assay plate at 37 °C for 2 h[36]. Next, every sample was incubated with the capture and detection antibody, followed by incubation with developer solution for 10 min at room temperature. The absorbance was measured at 450 nm using a POLARstar Omega microplate reader (BMG). S-Adenosylhomocysteine (AdoHcy) was used as a positive control. Methylation inhibition assays for EZH2, LSD, and G9a were performed in modified Tris, pH 9.0, buffer using AlphaLisa technology. An amount of 10 µL of the reaction system contained a corresponding concentration of SAM (Sigma) (EZH2 50 µM, LSD 50 µM, and G9a 50 µM), which was the Km value in each enzymatic reaction, plus 100 nM biotinylated peptide H3 (1–21) (synthesis by GLChina) and the relevant enzyme concentration (0.03 nM EZH2, 0.03 nM LSD, and 0.03 nM G9a). The proteins were preincubated with various compound concentrations for 15 min at room temperature before the substrate and SAM were added. After 60 min of incubation at room temperature, acceptor and donor AlphaLisa beads were added according to the manufacturer’s recommendations. The signals were read in Alpha mode with an EnSpire multimode plate reader (PerkinElmer). IC50 values were derived by fitting the data for the inhibition percentage to a dose-response curve by non-linear regression in GraphPad Prism 5.0[20].
(§2) In addition to DNMT1, there are many other methyltransferases that can bind with S-adenosyl-L-methionine (SAM) to facilitate transmethylation reactions[24]^,[25]. To investigate the selectivity of these potent compounds for DNMT1, we then evaluated the inhibitory activities against DNMT1 and other important methyltransferases at the concentration of 50 µM, including DNMT3A/3L, DNMT3B/3L, and other SAM-dependent enzymes[1]^,[2]^,[26], such as EZH2[27], LSD1[28], G9a (histone H3 lysine 9 methyltransferase)[29].
(§3) 493 Relative selectivity index
(§4) 494 Relative selectivity index of DNMT1 is calculated by formula: DNMT1-selectivity
(§5) 495 index =1 - selected enzyme inhibition/DNMT1 inhibition. The closer
(§6) 496 that this value is to 1 or even more than 1, the better DNMT1-selectivity the of the
(§7) 498 Table S1. Relative selectivity index of DNMT1
Cpd. […]

[2] = test system: LSD1; experiment: Methylation inhibition assay (AlphaLisa), LSD1; type: biochemical; conditions: 1 - selected enzyme inhibition/DNMT1 inhibition; 50 µM
Protocol: as §1, §2, §3, §4, §5, §6, §7
Cpd. […]

[3] = test system: HCT116 (human colon cancer cells); experiment: MTT assay, HCT116; type: cell-based
Protocol: (§8) The human lung cancer cells (A549) and human colon cancer cells (HCT116) were cultured in an RPMI-1640 medium containing 10% FBS, 100 U/mL streptomycin, and 100 U/mL penicillin at 37 °C in a humidified atmosphere with 5% CO2. All compounds were dissolved in DMSO and stock solutions were stored at −20 °C. Reagents were freshly diluted to the marked concentrations with a culture medium before use. DMSO concentration in experimental conditions never exceeded 0.1% (v/v). All cell lines were provided by the cell laboratory, School of pharmaceutical sciences, Guangzhou Medical University.
(§9) Cell viability was detected using an MTT assay kit. Cells were seeded into 96-well plates at a density of ∼1.0 × 10^4/well. 24 h later, sextuplicate wells were treated with media and new compounds at a fixed concentration (50 µM). After 24, 48, and 72 h, the drug-containing medium was replaced by a 100 µL fresh medium with 5 mg/mL MTT solution. After 4 h of incubation, the medium with MTT was removed, and 100 µL of DMSO was added to each well. The plates were gently agitated until the purple formazan crystals were dissolved, and the OD490 was determined using a […] (Olympus BX53, Japan). The data were calculated and plotted as the percent viability compared to the control.

[4] = test system: EZH2; experiment: Methylation inhibition assay (AlphaLisa), EZH2; type: biochemical; conditions: 50 µM; for inhibitory activity against EZH2: Figure 3; for Relative selectivity index of DNMT1 vs EZH2: 1 - selected enzyme inhibition/DNMT1 inhibition
Protocol: as §1, §2, §3, §4, §5, §6, §7
Cpd. […]

[5] = test system: human DNMT1; experiment: ELISA EpiQuik DNA methyltransferase (DNMT) activity/inhibitor assay; type: biochemical; conditions: 200 nM purified DNMT1, EpiQuik kit; for Inh% at 50 μM: 50 μM compound; for Inh% at 100 μM: 100 μM compound
Protocol: as §1
DNMT1 inhibition test was performed on 30 candidates to verify their biochemical activities. The EpiQuik DNA methyl-transferase (DNMT) activity/inhibitor assay kit (Epigentek) was used to identify the activity of synthetic compounds.

[6] = test system: DNMT3B/3L; experiment: Methyltransferase enzymatic selectivity profiling, DNMT3B/3L; type: biochemical; conditions: 50 µM; for inhibitory activity against DNMT3B/3L: Figure 3; for Relative selectivity index of DNMT1 vs DNMT 3B/3L: 1 - selected enzyme inhibition/DNMT1 inhibition
Protocol: as §2
(§10) Here, the selectivity of non-nucleoside DNMT1 inhibitors is somewhat predictable because other methyltransferases mentioned above catalyse different substrates and share very low homology with DNMT1, even in their catalytic domain[30–32]. Subsequently, the screened compounds were evaluated in a dose-dependent assay against HCT116 (human colon cancer cell line) and A549 (human lung carcinoma cell line).
as §3, §4, §5, §6, §7
Cpd. […]

[7] = target: DNMT1 (Homo sapiens, UniProt P26358); experiment: H3-labelled radioactive methylation assay; type: biochemical; conditions: H3-labeled radioactive methylation assay; 40 nM DNMT1
Protocol: The DNMT1 radioactive methylation inhibition assays were performed in 30 µL reactions containing 0.1 µM adenosyl-L-methionine S-[methyl-^3H] (^3H-SAM, ^15 Ci/mmol, PerkinElmer), 0.25 µg/mL poly (dI-dC)·poly (dI-dC) (Sigma), 40 nM DNMT1 in 50 mM Tris-HCl, pH 8.0, 1 mM DTT, 5% glycerol, and 100 µg/mL BSA. The proteins were preincubated with a range of compound concentrations for 15 min at room temperature before adding the substrate and [^3H] SAM. After 60 min of incubation at 37 °C, the reaction systems were transferred to a MultiScreen HTS filter plate (Millipore), and the plate was washed 3 times with doubly distilled H2O via a vacuum. The radioactivity was determined by liquid scintillation counting (MicroBeta, PerkinElmer). IC50 values were derived by fitting the data for the inhibition percentage to a dose-response curve by non-linear regression in GraphPad Prism 5.0.
To quantitatively analyse DNMT1 inhibitory effect, the H^3-labelled radioactive methylation assay was conducted to measure the methyltransferase activity of DNMT1 at a range of concentrations for these compounds.

[8] = test system: DNMT3A/3L; experiment: Methyltransferase enzymatic selectivity profiling, DNMT3A/3L; type: biochemical; conditions: 1 - selected enzyme inhibition/DNMT1 inhibition; 50 µM
Protocol: as §2, §10, §3, §4, §5, §6, §7
Cpd. […]

[9] = test system: A549 (human lung cancer cells); experiment: MTT assay, A549; type: cell-based
Protocol: as §8, §9

[10] = HCT-116, 24 h, read-out: Inh % at 50 μM, HCT116, 24 h
[11] = HCT-116, 48 h, read-out: Inh % at 50 μM, HCT116, 48 h
[12] = HCT-116, 72 h, read-out: Inh % at 50 μM, HCT116, 72 h
[13] = 24 h, read-out: Inh % at 50 μM, A549, 24 h
[14] = 48 h, read-out: Inh % at 50 μM, A549, 48 h
[15] = 72 h, read-out: Inh % at 50 μM, A549, 72 h

Sequence of DNMT1 (P26358 whole entry): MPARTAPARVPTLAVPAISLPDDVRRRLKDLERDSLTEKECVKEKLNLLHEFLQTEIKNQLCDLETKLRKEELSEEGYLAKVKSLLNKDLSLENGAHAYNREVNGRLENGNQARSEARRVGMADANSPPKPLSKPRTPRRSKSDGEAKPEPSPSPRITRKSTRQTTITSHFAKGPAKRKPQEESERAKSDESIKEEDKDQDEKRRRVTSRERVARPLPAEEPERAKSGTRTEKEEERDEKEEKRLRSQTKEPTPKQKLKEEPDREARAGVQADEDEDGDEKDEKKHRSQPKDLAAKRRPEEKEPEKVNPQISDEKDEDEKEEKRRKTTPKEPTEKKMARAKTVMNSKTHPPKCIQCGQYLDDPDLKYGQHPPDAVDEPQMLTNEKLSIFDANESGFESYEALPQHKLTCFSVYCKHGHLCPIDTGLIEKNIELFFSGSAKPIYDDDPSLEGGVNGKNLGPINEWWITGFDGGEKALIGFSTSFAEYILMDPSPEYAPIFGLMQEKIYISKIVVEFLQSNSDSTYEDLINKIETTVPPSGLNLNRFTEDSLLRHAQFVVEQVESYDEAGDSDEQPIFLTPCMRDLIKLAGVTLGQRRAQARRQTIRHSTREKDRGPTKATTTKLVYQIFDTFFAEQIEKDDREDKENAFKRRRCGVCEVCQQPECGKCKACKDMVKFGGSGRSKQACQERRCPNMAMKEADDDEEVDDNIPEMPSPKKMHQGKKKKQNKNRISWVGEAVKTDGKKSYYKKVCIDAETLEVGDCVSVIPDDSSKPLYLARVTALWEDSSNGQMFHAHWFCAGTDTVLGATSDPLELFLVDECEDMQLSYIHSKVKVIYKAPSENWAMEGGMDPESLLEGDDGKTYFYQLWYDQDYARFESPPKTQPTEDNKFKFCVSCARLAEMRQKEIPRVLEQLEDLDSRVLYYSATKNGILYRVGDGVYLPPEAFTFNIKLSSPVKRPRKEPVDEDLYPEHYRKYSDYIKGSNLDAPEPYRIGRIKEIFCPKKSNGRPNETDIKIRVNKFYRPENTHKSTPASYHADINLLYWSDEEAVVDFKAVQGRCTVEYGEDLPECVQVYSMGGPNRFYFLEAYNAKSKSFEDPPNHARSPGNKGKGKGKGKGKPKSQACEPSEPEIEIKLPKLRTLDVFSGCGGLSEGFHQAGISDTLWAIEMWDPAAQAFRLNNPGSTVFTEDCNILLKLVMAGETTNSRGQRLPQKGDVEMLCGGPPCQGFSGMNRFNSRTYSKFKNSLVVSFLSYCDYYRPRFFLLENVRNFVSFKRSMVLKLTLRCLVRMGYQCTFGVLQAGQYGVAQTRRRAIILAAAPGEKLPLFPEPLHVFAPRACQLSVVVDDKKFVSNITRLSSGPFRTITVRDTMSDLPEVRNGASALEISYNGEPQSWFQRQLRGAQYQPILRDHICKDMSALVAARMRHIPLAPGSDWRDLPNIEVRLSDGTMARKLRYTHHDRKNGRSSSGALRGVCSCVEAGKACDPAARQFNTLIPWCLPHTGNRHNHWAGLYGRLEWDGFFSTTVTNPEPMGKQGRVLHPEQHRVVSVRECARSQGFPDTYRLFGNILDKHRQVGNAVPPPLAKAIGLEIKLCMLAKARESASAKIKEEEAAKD

melting point [°C]	inhibitory activity against G9a [1]	Relative selectivity index of DNMT1 vs G9a [1]	Inh% at 50 μM [5] [%]	Inh% at 100 μM [5] [%]	inhibitory activity against DNMT3B/3L [6]	Relative selectivity index of DNMT1 vs DNMT 3B/3L [6]	IC50 [7] [µM]	Relative selectivity index of DNMT1 vs DNMT 3A/3L [8]	SMILES	Relative selectivity index of DNMT1 vs LSD1 [2]	inhibition at 50 µM [3, 10] [%]	inhibition at 50 µM [3, 11] [%]	inhibition at 50 µM [3, 12] [%]	inhibitory activity against EZH2 [4]	Relative selectivity index of DNMT1 vs EZH2 [4]	inhibition at 50 µM [9, 13] [%]	inhibition at 50 µM [9, 14] [%]	inhibition at 50 µM [9, 15] [%]
130 to 132	hardly any inhibitory activities	0.93	99	94	hardly any inhibitory activities	1.09	17	0.67	OC(CNCCc1c[nH]c2ccccc12)Cn1c2ccc(F)cc2c2cc(F)ccc21 (stereo not shown) [WK-12, 1-((2-(1H-indol-3-yl)ethyl)amino)-3-(3,6-difluoro-9H-carbazol-9-yl)propan-2-ol]	0.23	77.7	88.8	96.7	hardly any inhibitory activities	0.91	59.9	80.1	84.7
143 to 145	hardly any inhibitory activities	0.91	82	90	hardly any inhibitory activities	1.28	19	0.68	Oc1ccc(CCNCC(O)Cn2c3ccc(F)cc3c3cc(F)ccc32)cc1 (stereo not shown) [WK-13, 4-(2-((3-(3,6-Difluoro-9H-carbazol-9-yl)-2-hydroxypropyl)amino)ethyl) phenol]	0.33	–	86.3	93.2	hardly any inhibitory activities	1.01	–	69.2	84.1
136 to 138	–	0.91	78	93	–	1.29	9.2	0.67	CC(CO)NCC(O)Cn1c2ccc(F)cc2c2cc(F)ccc21 (stereo not shown) [WK-19, 2-((3-(3,6-Difluoro-9H-carbazol-9-yl)-2-hydroxypropyl)amino)propan-1-ol]	0.29	5.6	59.4	88.3	–	1.01	7.9	68.4	79.9
